# Entries after “also recorded” stand apart in the source; their conditions may differ. Where no end group is shown, it is not given here.
# Tested on: endogenous GPCRs in A431 cells
# Test: DMR optical biosensor profiling of GPCR agonists
# Format: cell-based, human
# Conditions: fully quiescent A431 cells
row,Compound,Dose-dependent switching of optical signature
1,CC(CCCCC(=O)Nc1ccc(C(F)(F)F)cc1)NCCc1cnc[nH]1 (stereo not drawn) [HTMT],"At low doses (<˜40 nM), HTMT dose-dependently resulted in a typical Gi-type optical signature; also recorded: became almost steady (i.e., no obvious DMR); also recorded: switching to a typical Gs-type optical signature"
2,oleoyl-L-α-lysophosphatidic acid [LPA],typical Gi-type optical signature at low doses of LPA; also recorded: switched to Gq-type optical signature at high doses of LPA

# Same assay, conditions: quiescent A431; first class = Gq-type, second = Gs-type, third = Gi-type, fourth = no significant DMR
row,Compound,Class of optical signature (DMR) induced by agonist
1,oleoyl-L-α-lysophosphatidic acid [LPA],third class of optical signatures
2,CC[C@H](C)[C@H](NC(=O)[C@@H]1CCCN1C(=O)[C@@H](NC(=O)[C@@H](N)Cc1ccccc1)C(C)C)C(=O)N[C@@H](Cc1ccccc1)C(=O)N[C@H](C(=O)N[C@@H](Cc1ccc(O)cc1)C(=O)NCC(=O)N[C@@H](CCC(=O)O)C(=O)N[C@@H](CC(C)C)C(=O)N[C@@H](CCC(N)=O)C(=O)N[C@@H](CCCNC(=N)N)C(=O)N[C@@H](CCSC)C(=O)N[C@@H](CCC(N)=O)C(=O)N[C@@H](CCC(=O)O)C(=O)N[C@@H](CCCCN)C(=O)N[C@@H](CCC(=O)O)C(=O)N[C@@H](CCCNC(=N)N)C(=O)N[C@@H](CC(N)=O)C(=O)N[C@@H](CCCCN)C(=O)NCC(=O)N[C@@H](CCC(N)=O)C(=O)O)[C@@H](C)O [motilin],did not exhibited any significant DMR signals
3,Oc1cc2c(cc1O)C(c1ccccc1)CNCC2 (stereo not drawn) [SKF38392],did not exhibited any significant DMR signals
4,"neurokinin A (HKTDSFVGLM; ends and bridges not checked; UniProt P20366 98-107, looked up) [agonist, TACR2]",did not exhibited any significant DMR signals
5,"neuromedin N (IPYIL; Neuromedin N; UniProt P30990 144-148, looked up) [agonist, NTSR1]",did not exhibited any significant DMR signals
6,Brc1c(NC2=NCCN2)ccc2nccnc12 [UK14304],did not exhibited any significant DMR signals
7,glucagon,did not exhibited any significant DMR signals
8,"dynorphin A (YGGFLRRIRPKLKWDNQ; Dynorphin A(1-17); UniProt P01213 207-223, looked up) [agonist, OPRM1 and OPRK1]",did not exhibited any significant DMR signals
9,neuropeptide Y,did not exhibited any significant DMR signals
10,CCCCC/C=C\C/C=C\C/C=C\C/C=C\CCCC(=O)NCCO [anandamide],did not exhibited any significant DMR signals
11,CNC[C@H](O)c1ccc(O)c(O)c1 [epinephrine],second class of optical signatures
12,CC(C)NCC(O)c1ccc(O)c(O)c1 (stereo not drawn) [isoprenternol],second class of optical signatures
13,C[C@@H](NC(=O)[C@@H](N)Cc1ccc(O)cc1)C(=O)NCC(=O)N(C)[C@@H](Cc1ccccc1)C(=O)NCCO [DAMGO],did not exhibited any significant DMR signals
14,interferon-γ-inducible protein-10 [IP-10],did not exhibited any significant DMR signals
15,CN1CCC(c2c[nH]c3ccc(O)cc23)CC1 [BRL 54443],did not exhibited any significant DMR signals
16,NC[C@@H]1O[C@H](C23CC4CC(CC(C4)C2)C3)Cc2c1ccc(O)c2O [A-77636],did not exhibited any significant DMR signals
17,interleukin-8,did not exhibited any significant DMR signals
18,apelin 1-17,did not exhibited any significant DMR signals
19,apelin 1-13,did not exhibited any significant DMR signals
20,Cc1cc(C(C)(C)C)c(O)c(C)c1CC1=NCCN1 [oxymetazoline],did not exhibited any significant DMR signals
21,"endothelin-1 (CSCSSLMDKECVYFCHLDIIW; ends and bridges not checked; cysteine pairing not given here; UniProt P05305 53-73, looked up) [agonist, EDNRA and EDNRB]",did not exhibited any significant DMR signals
22,"substance P (RPKPQQFFGLM; ends and bridges not checked; UniProt P20366 58-68, looked up) [agonist, TACR1]",did not exhibited any significant DMR signals
23,"Angiotensin II (DRVYIHPF; Angiotensin-2; UniProt P01019 25-32, looked up) [agonist, AGTR1]",did not exhibited any significant DMR signals

# Tested on: EGF-induced response of quiescent A431 cells
# Test: Effect of compound pretreatment on EGF-induced DMR response
# Format: cell-based, human
# Conditions: not given
# Description: Both A431 and CHO-K1 cells were grown in Dulbecco's modified Eagle's medium (DMEM) supplemented with 10% fetal calf serum, 100 μg/ml penicillin, and 100 μg/ml streptomycin. For cell culture, certain numbers of cells (2×10^5 to 1×10^6), either A431 or CHO-K1, were suspended in […] medium were placed in each well of a 96 well Corning Epic Biosensor microplate, and were cultured at 37° C. in air/5% CO2 for certain time until the cell density reached ˜90% and above (unless specified). The resulted cells were termed as “profilerating” cells. The “quiescent” cells were obtained by culturing the profilerating cells of desired confluencies with a medium containing no or little (˜0.1% fetal bovine serum (FBS)) for at least 16 hours.
# During the assays, the cells in 100 μl medium were subject to two 25 μl HBSS buffer containing 20 mM HEPES, pH 7.4, each separated by at least 15 minutes before 50 μl stimulus-containing solution was applied. During all these steps, a parallel angular interrogation system was used to monitor the real time kinetics of cellular responses. For compound effect studies, a modified protocol was used which starts with 50 μl medium, and subject to sequential treatment: 25 μl HBSS buffer twice (each separated by at least 15 minutes), 50 μl compound solution and finally 50 μl stimulus-containing solution.
row,Compound,Effect of pretreatment on 32 nM EGF-induced response
1,N#CC(=C(/N)Sc1ccccc1N)/C(C#N)=C(\N)Sc1ccccc1N [U0126],significantly compressed the amplitudes of both the P-DMR and N-DMR signals with a delayed time τ
2,C[S+]([O-])c1ccc(-c2nc(-c3ccncc3)c(-c3ccc(F)cc3)[nH]2)cc1 (stereo not drawn) [SB203580],only led to a partial attenuation

# Same assay, conditions: quiescent A431 cells; 32 nM EGF
row,Compound,Effect of pretreatment on 32 nM EGF-induced response
1,COC(=O)[C@@]1(OC)C[C@H]2O[C@]1(C)n1c3ccccc3c3c4c(c5c6ccccc6n2c5c31)C(=O)N(C)C4 [KT5823],little effect on the response
2,Cc1[nH]c(=O)c(C#N)cc1-c1ccncc1 [milrinone],None of these inhibitors had an obvious effect on the responses
3,R(−)-rolipram,None of these inhibitors had an obvious effect on the responses
4,CN(C(=O)CCCOc1ccc2[nH]c(=O)ccc2c1)C1CCCCC1 [cilostamide],None of these inhibitors had an obvious effect on the responses
5,CCCCCCOC(=O)[C@]1(O)C[C@@H]2O[C@@]1(C)n1c3ccccc3c3c4c(c5c6ccccc6n2c5c31)C(=O)NC4 [KT 5720],little effect on the response
6,Oc1ccc(-c2nc(-c3ccc(F)cc3)c(-c3ccncc3)[nH]2)cc1 [SB20219],only led to a partial attenuation
7,CCCCOc1cc(CC2CNC(=O)N2)ccc1OC (stereo not drawn) [Ro 20-1724],None of these inhibitors had an obvious effect on the responses

# Same assay, conditions: starved A431 cells; 8 nM EGF; 30-minute pretreatment; GH 0.5 ng/ml, PD98059 0.1 mM, PP1 1 μM, wortmannin 0.1 μM, DIP 50 μM
row,Compound,Effect of pre-treatment on EGF-induced P-DMR and N-DMR signals
1,COc1cccc(-c2cc(=O)c3ccccc3o2)c1N [PD98059],significantly reduced both the binding and DMR signals
2,growth hormone,significantly reduced both the binding and DMR signals
